Reference: PubChem BioAssay (NCI)
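Five compound concentrations were applied to cells in 96-well plates for 48 hours; endpoints were derived by simple linear interpolation of the resulting dose-response curve. TGI marks complete inhibition of growth.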

Columns and labels:
Assay in all cases: NCI anticancer screen, dose series, 48 h
[1] = test system: HOP-92 NSCLC
[2] = test system: SK-MEL-5 melanoma
[3] = test system: BT-549 breast
[4] = test system: HOP-62 NSCLC
[5] = test system: IGROV1 ovarian
[6] = test system: KM12 colon
[7] = test system: NCI/ADR-RES ovarian
[8] = test system: SNB-19 CNS
[9] = test system: NCI-H226 lung
[10] = test system: MOLT-4 leukemia
[11] = test system: M14 melanoma
[12] = test system: UO-31 renal
[13] = test system: A549 NSCLC
[14] = test system: T-47D breast
[15] = test system: NCI-H460 lung
[16] = test system: U251 CNS
[17] = test system: SF-268 CNS
[18] = test system: TK-10 renal
[19] = test system: MDA-N
[20] = test system: A498 renal
[21] = test system: MALME-3M melanoma
[22] = test system: LOX IMVI melanoma
[23] = test system: HCT-116 colon
[24] = test system: NCI-H23 lung
[25] = test system: SK-MEL-28 melanoma
[26] = test system: HCT-15 colon
[27] = test system: HT29 colon
[28] = test system: PC-3 prostate
[29] = test system: RPMI-8226 leukemia
[30] = test system: K-562 leukemia
[31] = test system: SK-OV-3 ovarian
[32] = test system: COLO 205 colon
[33] = test system: RXF 393 renal
[34] = test system: OVCAR-4 ovarian
[35] = test system: UACC-62 melanoma
[36] = test system: SK-MEL-2 melanoma
[37] = test system: EKVX NSCLC
[38] = test system: SN12C renal
[39] = test system: HCC-2998 colon
[40] = test system: NCI-H522 lung
[41] = test system: SNB-75 CNS
[42] = test system: 786-0 renal
[43] = test system: CCRF-CEM leukemia
[44] = test system: UACC-257 melanoma
[45] = test system: SW-620 colon
[46] = test system: OVCAR-5 ovarian
[47] = test system: SF-295 CNS
[48] = test system: MCF7 breast
[49] = test system: OVCAR-3 ovarian
[50] = test system: OVCAR-8 ovarian
[51] = test system: HL-60(TB) leukemia
[52] = test system: MDA-MB-435
[53] = test system: ACHN renal
[54] = test system: CAKI-1 renal
[55] = test system: DU-145 prostate
[56] = test system: MDA-MB-231 breast
[57] = test system: SF-539 CNS
[58] = test system: SR leukemia

CC(=O)OC1COC(n2nc(N)nc2C)C(OC(C)=O)C1OC(C)=O (centres undefined)
TGI [1]: > 100 µM
TGI [2]: > 100 µM
TGI [3]: > 100 µM
TGI [4]: > 100 µM
TGI [5]: > 100 µM
TGI [6]: > 100 µM
TGI [7]: > 100 µM
TGI [8]: > 100 µM
TGI [9]: > 100 µM
TGI [10]: > 100 µM
TGI [11]: > 100 µM
TGI [12]: > 100 µM
TGI [13]: > 100 µM
TGI [14]: > 100 µM
TGI [15]: > 100 µM
TGI [16]: > 100 µM
TGI [17]: > 100 µM
TGI [18]: > 100 µM
TGI [19]: > 100 µM
TGI [20]: > 100 µM
TGI [21]: > 100 µM
TGI [22]: > 100 µM
TGI [23]: > 100 µM
TGI [24]: > 100 µM
TGI [25]: > 100 µM
TGI [26]: > 100 µM
TGI [27]: > 100 µM
TGI [28]: > 100 µM
TGI [29]: > 100 µM
TGI [30]: > 100 µM
TGI [31]: > 100 µM
TGI [32]: > 100 µM
TGI [33]: > 100 µM
TGI [34]: > 100 µM
TGI [35]: > 100 µM
TGI [36]: > 100 µM
TGI [37]: > 100 µM
TGI [38]: > 100 µM
TGI [39]: > 100 µM
TGI [40]: > 100 µM
TGI [41]: > 100 µM
TGI [42]: > 100 µM
TGI [43]: > 100 µM
TGI [44]: > 100 µM
TGI [45]: > 100 µM
TGI [46]: > 100 µM
TGI [47]: > 100 µM
TGI [48]: > 100 µM
TGI [49]: > 100 µM
TGI [50]: > 100 µM
TGI [51]: > 100 µM
TGI [52]: > 100 µM
TGI [53]: > 100 µM
TGI [54]: > 100 µM
TGI [55]: > 100 µM
TGI [56]: > 100 µM

O=C(O)C(CCc1ccccc1)N1C(=O)c2ccccc2C1=O (centres undefined)
TGI [1]: > 100 µM
TGI [2]: > 100 µM
TGI [3]: > 100 µM
TGI [4]: > 100 µM
TGI [5]: > 100 µM
TGI [6]: > 100 µM
TGI [7]: > 100 µM
TGI [8]: > 100 µM
TGI [9]: > 100 µM
TGI [10]: > 100 µM
TGI [11]: > 100 µM
TGI [12]: > 100 µM
TGI [13]: > 100 µM
TGI [14]: > 100 µM
TGI [15]: > 100 µM
TGI [16]: > 100 µM
TGI [18]: > 100 µM
TGI [19]: > 100 µM
TGI [20]: > 100 µM
TGI [22]: > 100 µM
TGI [23]: > 100 µM
TGI [24]: > 100 µM
TGI [25]: > 100 µM
TGI [26]: > 100 µM
TGI [57]: > 100 µM
TGI [27]: > 100 µM
TGI [28]: > 100 µM
TGI [29]: > 100 µM
TGI [30]: > 100 µM
TGI [31]: > 100 µM
TGI [32]: > 100 µM
TGI [33]: > 100 µM
TGI [34]: > 100 µM
TGI [35]: > 100 µM
TGI [36]: > 100 µM
TGI [37]: > 100 µM
TGI [38]: > 100 µM
TGI [41]: > 100 µM
TGI [42]: > 100 µM
TGI [43]: > 100 µM
TGI [44]: > 100 µM
TGI [45]: > 100 µM
TGI [46]: > 100 µM
TGI [47]: > 100 µM
TGI [48]: > 100 µM
TGI [58]: > 100 µM
TGI [49]: > 100 µM
TGI [50]: > 100 µM
TGI [51]: > 100 µM
TGI [52]: > 100 µM
TGI [53]: > 100 µM
TGI [54]: > 100 µM
TGI [55]: > 100 µM
TGI [56]: > 100 µM

CCN(CC)c1ccc2cc(-c3nc4ccccc4n3C)c(=O)oc2c1
TGI [1]: > 100 µM
TGI [2]: 3.42 µM
TGI [3]: 0.861 µM
TGI [4]: 29.8 µM
TGI [5]: 4.79 µM
TGI [6]: > 100 µM
TGI [7]: 0.727 µM
TGI [8]: > 100 µM
TGI [9]: 1.46 µM
TGI [10]: > 100 µM
TGI [11]: > 100 µM
TGI [12]: > 100 µM
TGI [13]: > 100 µM
TGI [14]: > 100 µM
TGI [15]: 4.36 µM
TGI [16]: > 41.9 µM
TGI [17]: > 100 µM
TGI [18]: > 100 µM
TGI [19]: 0.135 µM
TGI [20]: 0.187 µM
TGI [22]: > 100 µM
TGI [23]: > 100 µM
TGI [24]: 29.3 µM
TGI [26]: > 100 µM
TGI [57]: 0.545 µM
TGI [27]: 11 µM
TGI [29]: > 31.6 µM
TGI [30]: > 100 µM
TGI [31]: 43.6 µM
TGI [33]: 63.1 µM
TGI [34]: > 100 µM
TGI [36]: 0.68 µM
TGI [38]: > 100 µM
TGI [40]: 0.661 µM
TGI [42]: > 48.7 µM
TGI [43]: > 100 µM
TGI [44]: > 100 µM
TGI [45]: > 100 µM
TGI [46]: > 100 µM
TGI [47]: > 100 µM
TGI [48]: > 100 µM
TGI [58]: > 100 µM
TGI [50]: > 100 µM
TGI [51]: > 100 µM
TGI [52]: 0.334 µM
TGI [53]: > 100 µM
TGI [54]: > 100 µM
TGI [55]: > 24.2 µM
TGI [56]: > 54.3 µM
